# Experimental data from article PMC6941952, “A homogeneous bioluminescent immunoassay to probe cellular signaling pathway regulation” (Communications Biology, 2020).
# Where “and” joins values, the source holds several entries; their conditions need not be identical. Equal entries are not always repeated.
# System: total IκBα
# Assay: NanoBiT cell-based immunoassay, total IκBα in MCF-7 cells
# Parameters: species or system human
# Conditions: with CHX; for IkB Average: background subtracted
# Procedure: Prior to NanoBiT Cell-Based Immunoassay, 50,000 cells were seeded in 160 µl of complete growth media per well of a 96-well plate and incubated overnight. […] If necessary, the cell culture media were replaced with serum-free media after the cells were stably adherent on the plate and incubated overnight. To treat cells with activators or inhibitors, medium was changed to 30 µl of medium containing inhibitors. If activation of a specific pathway is needed, the cells were stimulated with 10 µl of medium containing activators. To lyse the cells, 10 µl of lysis buffer containing 0.1% digitonin diluted in 1X immunoassay buffer with protease and phosphatase inhibitors was added and the plates were mixed vigorously for 20 min. Then, 50 µl of an antibody mix containing two primary antibodies against the target protein and NanoBiT detecting antibodies (0.3 µl each per well), diluted in 1X immunoassay buffer was added to the lysates. The plates were incubated at 23 °C for 90 min, followed by the addition of 25 µl of Nano-Glo® reagent consisting of Nano-Glo® Luciferase Assay Substrate mixed with 1X immunoassay buffer. Luminescence was measured using a plate-reading luminometer.
# Single dose or dose response inhibitor treatments were performed prior to activation of the pathways as follows. For IκBα, the cells were treated in 30 µl medium with IKK16 or MG132 for 60 min before the addition of 10 µl of DMEM containing appropriate concentration of TNFα. To measure phosphorylation of AKT or STAT3, the corresponding NanoBiT immunoassays were developed with MCF-7 or A431 cells, respectively, according the same scheme used to develop the IκBα assay using the primary antibodies for AKT and STAT3 described in the reagents section. […] Treatment with LY294002 was performed in 30 µl medium and cells were incubated for 60 min before the addition of 1 µM Insulin. To measure STAT3 phosphorylation, A431 cells were incubated overnight in DMEM medium without serum. […] After addition of the stimulators, the cells were incubated for additional times as follows. IκBα phosphorylation and degradation analyses required both time courses and single time points as described in figures. […] The NanoBiT immunoassay protocol was followed as described above.
# All 96-well assay plates were read using a GloMax® 96 Microplate Luminometer from Promega. The instrument was set to 0.5 s integration time. In order to obtain net change of signal, the reagent background values (signal from the well containing all reagent except primary antibodies) were subtracted from the sample values. To plot and analyze the data, Microsoft Excel and GraphPad Prism® Software were used. IC50 values were determined by using a nonlinear regression fit to a sigmoidal dose response (variable slope).
smiles,measurement,setting,value
C[C@@H]1C[C@@H]([C@H](O)CC2CC(=O)NC(=O)C2)C(=O)[C@@H](C)C1 [CHX],IKB with CHX Raw data,TNF 0 min,55360 and 57660 and 54100 and 60230
same,IKB with CHX Subtract reagent background,TNF 0 min,43590 and 45890 and 42330 and 48460
same,IkB Average,TNF 0 min,45068
same,IKB with CHX Raw data,TNF 5 min,58100 and 62010 and 65600 and 63320
same,IKB with CHX Subtract reagent background,TNF 5 min,46330 and 50240 and 53830 and 51550
same,IkB Average,TNF 5 min,50488
same,IKB with CHX Raw data,TNF 10 min,40310 and 45450 and 45320 and 45290
same,IKB with CHX Subtract reagent background,TNF 10 min,28540 and 33680 and 33550 and 33520
same,IkB Average,TNF 10 min,32323
same,IKB with CHX Raw data,TNF 20 min,19760 and 23860 and 25280
same,IKB with CHX Subtract reagent background,TNF 20 min,7990 and 12090 and 13510
same,IkB Average,TNF 20 min,10395
same,IKB with CHX Raw data,TNF 30 min,17770 and 17940 and 21410 and 21590
same,IKB with CHX Subtract reagent background,TNF 30 min,6000 and 6170 and 9640 and 9820
same,IkB Average,TNF 30 min,7908
same,IKB with CHX Raw data,TNF 40 min,17270 and 17950 and 20500 and 19500
same,IKB with CHX Subtract reagent background,TNF 40 min,5500 and 6180 and 8730 and 7730
same,IkB Average,TNF 40 min,7035
same,IKB with CHX Raw data,TNF 60 min,18390 and 17430 and 19370 and 18920
same,IKB with CHX Subtract reagent background,TNF 60 min,6620 and 5660 and 7600 and 7150
same,IkB Average,TNF 60 min,6758
same,IKB with CHX Raw data,TNF 80 min,19070 and 18960 and 19260 and 19280
same,IKB with CHX Subtract reagent background,TNF 80 min,7300 and 7190 and 7490 and 7510
same,IkB Average,TNF 80 min,7373
same,IKB with CHX Raw data,TNF 100 min,19610 and 18970 and 19990 and 19730
same,IKB with CHX Subtract reagent background,TNF 100 min,7840 and 7200 and 8220 and 7960
same,IkB Average,TNF 100 min,7805
same,IKB with CHX Raw data,TNF 120 min,20170 and 20220 and 20080 and 18790
same,IKB with CHX Subtract reagent background,TNF 120 min,8400 and 8450 and 8310 and 7020
same,IkB Average,TNF 120 min,8045
